Results reported in US6873914B2, “Methods and systems for analyzing complex biological systems” (Icoria, Inc., priority 2001, dated 2005).
Entries after “also recorded” stand apart in the source; their conditions may differ.

Experiments:
[1] = test system: Arabidopsis thaliana plants; experiment: SOA1 phenotypic analysis of herbicide-treated Arabidopsis plants; type: in vivo; details: for characteristic symptoms (morphological phenotype): in words; for Symptom Class: Arabidopsis sprayed with herbicide, phenotypes of the classes pictured in FIG. 12; for leafCurling (Dev.) / leafTwisting (Dev.) / leafWidth (Dev.) / matureLeafAnthocyanins (Dev.) / matureLeafChlorosis (Dev.) / matureLeafNecrosis (Dev.) / newLeafAnthocyanins (Dev.) / newLeafChlorosis (Dev.) / newLeafNecrosis (Dev.) / pointedLeaves (Dev.): numeric value standardized to mock treated plants; for tMic (Dev.): score for time required to exhibit full range of symptoms at the MIC
[2] = test system: Arabidopsis thaliana; experiment: MOA1 phenotypic profiling of Arabidopsis sprayed with unknown and commercial herbicides; type: in vivo; details: in words
[3] = test system: Saccharomyces cerevisiae wild type strain BY4743; experiment: AF1 metabolite analysis (GC-MS, LC-MS) of yeast cells treated with antifungal drugs; type: cell-based
[4] = test system: Saccharomyces cerevisiae wild type strain BY4743; experiment: AF1 combined gene expression and metabolite data mapped to KEGG reactions and pathways, cluster analysis; type: cell-based
From the text: In AF1, two different technologies were utilized: gene expression analysis (for examination of mRNA expression) and metabolite analysis. […] As noted previously, existing metabolic databases may be helpful in practicing the methods and systems of the present invention, but many databases include limitations that make their use in data analysis and pathway mapping less than straightforward. […] This caveat to KEGG makes it difficult to pinpoint the correct pathway when attempting to link a gene to a specific pathway. […] The pathway score indicates how meaningful the mapping is, or how likely it is to be correctly indicative of the pathway involved in the perturbation under examination. […] Degree of perturbation can be calculated, for example, based on a number of standard deviations from a norm, and included in an equation such as the one shown above, so that not only the number of pathways is taken into account, but also accounts for the amount of gene transcript or compound present as compared to a control. […] KEGG links 676 compounds measured in AF1 to a total of 92 pathways. Of the 676 compounds under consideration, 77 were detected in the AF1 samples. […]

[5] = test system: Arabidopsis thaliana; experiment: MOA1 gene expression profiling (22,000 gene array) of treated Arabidopsis; type: in vivo; details: regulated genes identified as essential for plant growth and development (internal database)
[6] = test system: Magnaporthe grisea; type: cell-based
[7] = test system: Arabidopsis thaliana; experiment: MOA1 biochemical (metabolite) profiling by LC-MS and GC-MS of treated Arabidopsis; details: after one hour
[8] = test system: PSI, PROTOX; experiment: PSI / PROTOX inhibition (unpublished data)

Q: How did the “characteristic symptoms (morphological phenotype)” value [1] turn out when Nc1nc[nH]n1 [Amitrole] was run?
A: leaf bleaching and leaf enlargement

Q: And the “phenotype / hierarchical cluster analysis of the eleven phenotypic characteristics” value [2]?
A: exhibited chlorosis and not true bleaching

Q: Which “squalene and lanosterol in treated yeast cells” value ([3]; AF1, 2×MIC, two hours) does the source give for C[C@@H]1[C@H](O)[C@@H](C)/C=C/C=C/C=C/C=C/C=C/C=C/C=C/[C@H](O[C@@H]2O[C@H](C)[C@@H](O)[C@H](N)[C@@H]2O)C[C@@H]2O[C@](O)(C[C@@H](O)C[C@@H](O)[C@H](O)CC[C@@H](O)C[C@@H](O)CC(=O)O[C@H]1C)C[C@H](O)[C@H]2C(=O)O [Amphoteracin B] here?
A: not

Q: And the “Fold Change: campesterol” value ([3]; GC)?
A: 0

Q: And the “Fold Change: desmosterol” value ([3]; GC)?
A: 0

Q: What about the “Fold Change: octadecanoic acid” value ([3]; GC) of the same molecule?
A: 0.21

Q: And the “Fold Change: abscisic acid” value ([3]; LC)?
A: 0

Q: And the “Fold Change: adenosine” value ([3]; LC)?
A: 0

Q: And the “Fold Change: riboflavin” value ([3]; LC)?
A: 0

Q: And the “Fold Change: 4-methylcatechol” value ([3]; nLC)?
A: 0

Q: What about the “Fold Change: 5hydroxyLtryptophan” value ([3]; nLC) of the same molecule?
A: 0

Q: And the “Fold Change: 6-benzylaminopurine” value ([3]; nLC)?
A: 0

Q: And the “Fold Change: NacetylDglucosamine” value ([3]; nLC)?
A: 0

Q: And the “Fold Change: NacetylLornithine” value ([3]; nLC)?
A: 0

Q: And the “Fold Change: abscisic acid” value ([3]; nLC)?
A: 0

Q: What about the “Fold Change: adenine” value ([3]; nLC) of the same molecule?
A: 0

Q: And the “Fold Change: adenosine” value ([3]; nLC)?
A: 0

Q: What about the “Fold Change: anthranilic acid” value ([3]; nLC) of the same molecule?
A: 0

Q: And the “Fold Change: argininosuccinate” value ([3]; nLC)?
A: 0

Q: And the “Fold Change: benzoic acid” value ([3]; nLC)?
A: 0

Q: What about the “Fold Change: catechol” value ([3]; nLC) of the same molecule?
A: 0

Q: And the “Fold Change: cinnamic acid” value ([3]; nLC)?
A: 0

Q: What about the “Fold Change: citricanoic/itaconi” value ([3]; nLC) of the same molecule?
A: 0

Q: And the “Fold Change: coumaric acid” value ([3]; nLC)?
A: 0

Q: And the “Fold Change: cytosine” value ([3]; nLC)?
A: 0

Q: And the “Fold Change: diaminopimelic acid” value ([3]; nLC)?
A: 0

Q: What about the “Fold Change: dihydrofolic acid” value ([3]; nLC) of the same molecule?
A: 0

Q: And the “Fold Change: estrone” value ([3]; nLC)?
A: 0

Q: And the “Fold Change: farnesol” value ([3]; nLC)?
A: 0

Q: And the “Fold Change: folic acid” value ([3]; nLC)?
A: 0

Q: And the “Fold Change: gibberellic” value ([3]; nLC)?
A: 0

Q: What about the “Fold Change: guanine” value ([3]; nLC) of the same molecule?
A: 0

Q: And the “Fold Change: histidine” value ([3]; nLC)?
A: 0

Q: What about the “Fold Change: homogentisic/uric” value ([3]; nLC) of the same molecule?
A: 0

Q: And the “Fold Change: hydrocortisone” value ([3]; nLC)?
A: 0

Q: What about the “Fold Change: indole3pyruvic acid” value ([3]; nLC) of the same molecule?
A: 0

Q: And the “Fold Change: jasmonic acid” value ([3]; nLC)?
A: 0

Q: What about the “Fold Change: kinetin” value ([3]; nLC) of the same molecule?
A: 0

Q: And the “Fold Change: luteolin” value ([3]; nLC)?
A: 0

Q: What about the “Fold Change: malonic acid” value ([3]; nLC) of the same molecule?
A: 0

Q: And the “Fold Change: methionine” value ([3]; nLC)?
A: 0

Q: What about the “Fold Change: phenylpyruvic acid” value ([3]; nLC) of the same molecule?
A: 0

Q: What about the “Fold Change: phosphoenolpyruvate” value ([3]; nLC) of the same molecule?
A: 0

Q: And the “Fold Change: pinitol” value ([3]; nLC)?
A: 0

Q: What about the “Fold Change: porphobilinogen” value ([3]; nLC) of the same molecule?
A: 0

Q: What about the “Fold Change: retinoic acid” value ([3]; nLC) of the same molecule?
A: 0

Q: What about the “Fold Change: salicylic/HObenzoic” value ([3]; nLC) of the same molecule?
A: 0

Q: What about the “Fold Change: shikimic acid” value ([3]; nLC) of the same molecule?
A: 0

Q: What about the “Fold Change: sinapinic acid” value ([3]; nLC) of the same molecule?
A: 0

Q: And the “Fold Change: thymine” value ([3]; nLC)?
A: 0

Q: What about the “Fold Change: 4-aminobenzoic acid” value ([3]; pLC) of the same molecule?
A: 0

Q: What about the “Fold Change: 4-methylcatechol” value ([3]; pLC) of the same molecule?
A: 0

Q: What about the “Fold Change: 5hydroxyLtryptophan” value ([3]; pLC) of the same molecule?
A: 0

Q: And the “Fold Change: 6benzylaminopurine” value ([3]; pLC)?
A: 0

Q: What about the “Fold Change: NacetylDglucosamine” value ([3]; pLC) of the same molecule?
A: 0

Q: And the “Fold Change: NacetylLglutamate” value ([3]; pLC)?
A: 0

Q: And the “Fold Change: allantoic acid” value ([3]; pLC)?
A: 0

Q: And the “Fold Change: anthranilic acid” value ([3]; pLC)?
A: 0

Q: And the “Fold Change: argininosuccinate” value ([3]; pLC)?
A: 0

Q: And the “Fold Change: biotin” value ([3]; pLC)?
A: 0

Q: What about the “Fold Change: caffeine” value ([3]; pLC) of the same molecule?
A: 0

Q: And the “Fold Change: citric acid TME” value ([3]; pLC)?
A: 0

Q: What about the “Fold Change: cytidine” value ([3]; pLC) of the same molecule?
A: 0

Q: What about the “Fold Change: cytosine” value ([3]; pLC) of the same molecule?
A: 0

Q: What about the “Fold Change: diaminopimelic acid” value ([3]; pLC) of the same molecule?
A: 0

Q: And the “Fold Change: dihydrofolic acid” value ([3]; pLC)?
A: 0

Q: What about the “Fold Change: dipicolinic acid” value ([3]; pLC) of the same molecule?
A: 0

Q: What about the “Fold Change: folic acid” value ([3]; pLC) of the same molecule?
A: 0

Q: And the “Fold Change: glucosamine” value ([3]; pLC)?
A: 0

Q: What about the “Fold Change: glucosamine6PO4” value ([3]; pLC) of the same molecule?
A: 0

Q: And the “Fold Change: histidine” value ([3]; pLC)?
A: 0

Q: What about the “Fold Change: hydrocortisone” value ([3]; pLC) of the same molecule?
A: 0

Q: What about the “Fold Change: itaconic acid dimes” value ([3]; pLC) of the same molecule?
A: 0

Q: What about the “Fold Change: kinetin” value ([3]; pLC) of the same molecule?
A: 0

Q: What about the “Fold Change: luteolin” value ([3]; pLC) of the same molecule?
A: 0

Q: What about the “Fold Change: niacinamide” value ([3]; pLC) of the same molecule?
A: 0

Q: What about the “Fold Change: nopaline” value ([3]; pLC) of the same molecule?
A: 0

Q: And the “Fold Change: phosphoenolpyruvate” value ([3]; pLC)?
A: 0

Q: And the “Fold Change: progesterone” value ([3]; pLC)?
A: 0

Q: What about the “Fold Change: sugar-phosphate” value ([3]; pLC) of the same molecule?
A: 0

Q: And the “Fold Change: thiamine” value ([3]; pLC)?
A: 0

Q: What about the “Fold Change: thymine” value ([3]; pLC) of the same molecule?
A: 0

Q: What about the “Fold Change: tryptophan” value ([3]; pLC) of the same molecule?
A: 0

Q: And the “# Reactions Having an Enzyme and at Least One Compound Perturbed” value [4]?
A: 54

Q: Which “phenotype / hierarchical cluster analysis of the eleven phenotypic characteristics” value [2] does the source give for CCSC(=O)N(CC(C)C)CC(C)C [Butylate] here?
A: neither showed a strong herbicidal phenotype

Q: CC(C)OC(=O)Nc1cccc(Cl)c1 [Chloropropham] was tested. Which “phenotype / hierarchical cluster analysis of the eleven phenotypic characteristics” value [2] did it give?
A: neither showed a strong herbicidal phenotype

Q: For CP(=O)(O)CCC(N)C(=O)O (stereo not drawn) [Glufosinate], which “Symptom Class” value [1] is on record?
A: 3

Q: And the “characteristic symptoms (morphological phenotype)” value [1]?
A: Chlorosis and leaf curling

Q: What about the “leafCurling (Dev.)” value [1] of the same molecule?
A: 2

Q: And the “leafTwisting (Dev.)” value [1]?
A: 1

Q: What about the “leafWidth (Dev.)” value [1] of the same molecule?
A: −2

Q: What about the “matureLeafAnthocyanins (Dev.)” value [1] of the same molecule?
A: 0

Q: And the “matureLeafChlorosis (Dev.)” value [1]?
A: 3

Q: What about the “matureLeafNecrosis (Dev.)” value [1] of the same molecule?
A: 0

Q: And the “newLeafAnthocyanins (Dev.)” value [1]?
A: 0

Q: What about the “newLeafChlorosis (Dev.)” value [1] of the same molecule?
A: 3

Q: And the “newLeafNecrosis (Dev.)” value [1]?
A: 0

Q: What about the “pointedLeaves (Dev.)” value [1] of the same molecule?
A: 1

Q: And the “tMic (Dev.)” value [1]?
A: 1

Q: What about the “No. of Lethal Genes Altered” value [5] of the same molecule?
A: 10

Q: With O=C(O)CNCP(=O)(O)O [Glyphosate] as the molecule, how does the “Symptom Class” value [1] read?
A: 4

Q: And the “characteristic symptoms (morphological phenotype)” value [1]?
A: anthocyanin accumulation in the older leaves accompanied by chlorosis of the newly emerging leaves

Q: And the “leafCurling (Dev.)” value [1]?
A: 0

Q: What about the “leafTwisting (Dev.)” value [1] of the same molecule?
A: 0

Q: And the “leafWidth (Dev.)” value [1]?
A: 0

Q: What about the “matureLeafAnthocyanins (Dev.)” value [1] of the same molecule?
A: 3

Q: What about the “matureLeafChlorosis (Dev.)” value [1] of the same molecule?
A: 1

Q: What about the “matureLeafNecrosis (Dev.)” value [1] of the same molecule?
A: 3

Q: And the “newLeafAnthocyanins (Dev.)” value [1]?
A: 1

Q: What about the “newLeafChlorosis (Dev.)” value [1] of the same molecule?
A: 2

Q: And the “newLeafNecrosis (Dev.)” value [1]?
A: 0

Q: What about the “pointedLeaves (Dev.)” value [1] of the same molecule?
A: 1

Q: And the “tMic (Dev.)” value [1]?
A: 2

Q: And the “M. grisea growth with nitrate, nitrite, or glutamate as the sole nitrogen source” value [6]?
A: inhibited growth

Q: What about the “Growth of M. grisea with ammonium or glutamine as nitrogen source, Tier 4” value ([6]; 250 μg/ml) of the same molecule?
A: Little growth defect

Q: What about the “M. grisea growth results for Tiers 3 and 4” value ([6]; 250 μg/ml) of the same molecule?
A: nearly identical as compared to Unknown 4

Q: And the “M. grisea growth inhibition, effect of aromatic amino acids in the media” value ([6]; 1.0 mg/ml)?
A: remediated by inclusion of aromatic amino acids

Q: And the “tyrosine (downstream metabolite) relative to the control” value [7]?
A: decreased

Q: Which results are given for CS(=O)(=O)c1cc(C(F)(F)F)ccc1C(=O)c1cnoc1C1CC1 [Isoxaflutole]?
A: No. of Lethal Genes Altered [5]: 15; M. grisea growth in minimal media ([6]; concentration insufficient to inhibit growth): unaffected; M. grisea growth in minimal plus tyrosine (sole nitrogen source) media ([6]; concentration insufficient to inhibit growth (sub-inhibitory)): inhibited; tyrosine and phenylalanine relative to the control [7]: up-regulated; also recorded: began to accumulate

Q: How did the “PSI or PROTOX inhibitor” value [8] turn out when CCc1cccc(C)c1N(C(=O)CCl)C(C)COC (stereo not drawn) [Metolachlor] was run?
A: neither a PSI nor a PROTOX inhibitor
